Measured values published in patent US7084136B2, “Drug composition antagonistic to both PGD2/TXA2 receptors” (Shionogi & Co., Ltd., priority 2000, dated 2006).
Like-named read-outs stand apart in the source and are kept apart here. Marks after values point to notes of the source that are not given here.

Tests used:
PGD2 receptor = biological target: T1, PGD2 receptor (Homo sapiens, UniProt Q13258); assay: Binding activity to PGD2 receptor ([3H]PGD2, human platelet membrane fraction)
T1 construct: A suspension adjusted to contain the platelets at a final concentration of 5×10^8/ml was warmed at 37° C; endogenous in cells; host or cells: washed human platelets from a healthy volunteer
T1 sequence (Q13258 1-359): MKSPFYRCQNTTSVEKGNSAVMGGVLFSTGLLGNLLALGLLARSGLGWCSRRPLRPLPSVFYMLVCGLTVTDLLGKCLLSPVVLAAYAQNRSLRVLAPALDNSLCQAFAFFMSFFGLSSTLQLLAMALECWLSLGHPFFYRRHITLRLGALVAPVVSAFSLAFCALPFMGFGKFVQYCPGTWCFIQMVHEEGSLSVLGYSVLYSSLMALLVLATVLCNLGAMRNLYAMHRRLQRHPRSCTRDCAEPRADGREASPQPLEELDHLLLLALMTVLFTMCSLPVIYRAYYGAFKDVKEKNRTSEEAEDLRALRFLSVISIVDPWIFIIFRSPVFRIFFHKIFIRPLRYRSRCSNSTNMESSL
Experimental: Experiment 1 Binding Activity to PGD2 Receptor
(1) Preparation of Human Platelet Membrane Fraction
Blood was collected using a plastic syringe containing 3.8% sodium citrate from the vein of healthy volunteers (adult male and female), then put into a plastic test tube and mixed by slow-reversion. The sample was then centrifuged at 1800 rpm, for 10 min at room temperature, and the supernatant containing PRP (platelet-rich plasma) was collected. The PRP was re-centrifuged at 2300 rpm, for 22 min at room temperature to obtain platelets. The platelets were homogenized using a homogenizer (Ultra-Turrax) followed by centrifugation 3 times at 20,000 rpm, 10 min at 4° C. to obtain a platelet membrane fraction. After protein determination, the membrane fraction was adjusted to 2 mg/ml and preserved in a refrigerator at −80° C. until using for the binding test.
(2) Binding to PGD2 Receptor
To a binding-reaction solution (50 mM Tris/HCl, pH 7.4, 5 mM MgCl2) (0.2 ml) were added the human platelet membrane fraction (0.1 mg) and 5 nM [^3H]PGD2 (115 Ci/mmol), and the mixture was reacted at 4° C. for 90 min. After the reaction, the mixture was filtered through a glass fiber filter paper and washed several times with cooled physiological saline, then the radioactivity retained on the filter paper was measured. The specific-binding ratio was calculated by subtracting the non-specific binding ratio which is the radioactivity similarly measured in the presence of 10 μM PGD2 from the total binding. The inhibitory activity of each compound was expressed as the concentration required for 50% inhibition (IC50), which was determined by depicting a substitution curve by plotting the binding ratio (%) in the presence of each compound, where the binding ratio in the absence of a test compound is 100%.

TxA2 receptor = assay: Acceleration of vascular permeability of conjunctiva induced by U-46619 (Evans blue dye leakage); format: in vivo, guinea pig; conditions: for ED50 TXA2 (U-46619): oral, 1 h before challenge, 0.1% U-46619 instillation, conjunctival dye leakage, guinea pigs; for inhibition of the increase in vascular permeability in conjunctiva caused by U-46619: summary of Table 80, oral 1 h before challenge, guinea pig
Experimental: Acceleration of Vascular Permeability of Conjunctiva Induced by PGD2 and U-46619
Using male Hartley guinea pigs, PGD2- and TxA2 receptor-mediated increase in conjunctival vascular permeability was produced by instillation of each 10 μl solution of either 0.1% PGD2 or U-46619 (TXA2 receptor agonist) to the both eyes without anesthetization. Immediately after that, Evans blue dye (20 mg/kg) was intravenously injected. 30 min after the challenge, guinea pigs were sacrificed by bleeding under anesthesia with Pentobarbital (30 mg/kg, i.p.) and the tissue of conjunctiva was removed. The dye leaked into the tissue was extracted in formamide 3 ml at 60° C. for more than 24 h, and then centrifuged. The absorbance of the supernatant was measured at 620 nm. The amount of dye was calculated from the calibration curve of Evans blue dye. Each compound was suspended in 0.5% methyl-cellulose and administrated orally at 1 h before the challenge. The antagonistic activity was evaluated by the inhibition ratio against the dye leaked into conjunctiva caused by PGD2 or U-46619 at each dose and then a 50% effective dose of inhibition (ED50 value) of each compound was calculated.

[1] = system: Eosinophil Number in Bronchoalveolar Lavage Fluid; assay: Antigen-induced increase in the eosinophil number in bronchoalveolar lavage fluid; format: in vivo, guinea pig; conditions: for suppression of eosinophil infiltration: summary of Table 77 to Table 79, bronchoalveolar lavage fluid
Experimental: Antigen-Induced Increase in the Eosinophil Number in Bronchoalveolar Lavage Fluid.
Bronchoalveolar lavage was performed with 10 mL of saline, after the animals were sensitized and challenged with antigen. The number of total cells in the recovered fluid was stained with Türk and counted using hemocytometer. *: P<0.05, **:P<0.01 vs Vehicle(Dunnett's test), ^##: P<0.01 vs Vehicle(Student's t test). ( ): inhibition %.

Male Hartley guinea pigs = assay: Antigen-induced bronchial hyperresponsiveness (acetylcholine PD200, OVA-sensitized guinea pigs); format: in vivo, guinea pig; conditions: for inhibition of the induction of bronchial hyperresponsiveness: summary of Table 74 to Table 76, oral, guinea pig
Experimental: Comparative Experiment 2 Antigen-Induced Bronchial Hyperresponsiveness
Male Hartley guinea pigs were actively sensitized to ovalbumin (OVA) by inhalation of aerosolized solution of 1% ovalbumin twice at a week interval. One week after the second sensitization, the animals were treated with antihistamine, diphenhydramine (10 mg/kg, i.p.), and then challenged with 1% OVA aerosol for 5 min. Twenty four hours later, acetylcholine at doses at 3.13, 6.25, 12.5, 25, 50 and 100 micro g/kg was sequentially injected into the animals which were anesthetized with pentobarbital (30 mg/kg, i.p.). The bronchoconstriction induced by each dose of acetylcholine was monitored by the modified method of Konzett-Rössler technique, and made a dose-response curve of acetylcholine. Using the dose-response curve, the dose required for 200% increase in bronchoconstriction from baseline (PD200) was calculated in each animal and used as an indication of bronchial responsiveness. Compounds were orally administered 1 hour before antigen challenge. **: P<0.01 vs Vehicle(Dunnett's test), ^##: P<0.01 vs Vehicle(Student's t test).

[2] = comparative experiment in accordance with Experiment 1, read-out: Experiment 1 Antagonistic activity against PGD2 receptor IC50
[3] = 10 mg/kg, bronchoalveolar lavage fluid after antigen challenge

SMILES | IC50 (PGD2 receptor; [2]) [nM] | ED50 TXA2 (U-46619) (TxA2 receptor) [mg/kg] | inhibition of the increase in vascular permeability in conjunctiva caused by U-46619 (TxA2 receptor) | Total cells [1, 3] | inhibition at 10 mg/kg ([1]; Cavia porcellus, Eosinophil, 10 mg/kg, bronchoalveolar lavage fluid after antigen challenge, read-out: inhibition % (total cells in bronchoalveolar lavage fluid) (converted)) [%] | suppression of eosinophil infiltration [1] | Log PD200 (Male Hartley guinea pigs; 1 mg/kg orally 1 hour before antigen challenge, OVA-sensitized guinea pigs, acetylcholine) | Log PD200 (Male Hartley guinea pigs; 10 mg/kg orally 1 hour before antigen challenge, OVA-sensitized guinea pigs, acetylcholine) | inhibition of the induction of bronchial hyperresponsiveness (Male Hartley guinea pigs) | IC50 (PGD2 receptor; human platelet membrane fraction, read-out: Binding activity to PGD2 receptor in human platelet membrane fraction IC50) [nM] | inhibition % (total cells in bronchoalveolar lavage fluid) [1, 3] [%] | Log PD200 (Male Hartley guinea pigs; 10 mg/kg orally 1 hour before antigen challenge, acetylcholine dose for 200% increase in bronchoconstriction, 24 h after OVA challenge)
O=C(O)CCC/C=C\C[C@H]1[C@@H]2CC[C@@H](C2)[C@@H]1NS(=O)(=O)c1ccccc1 [A, reference compound] | > 10000 | 0.017 | suppressed | 15.20 ± 2.20 × 10^6 cells/animal | -12 | did not show any inhibitory actions | 1.29 ± 0.04 | 1.61 ± 0.09** | suppressed | – | – | –
Cc1cccn1S(=O)(=O)c1ccc(C(=O)N[C@@H]2[C@@H](CCCC/C=C/C(=O)O)C[C@H]3C[C@@H]2C3(C)C)s1 [II-7I-55a] | 1.8 | 0.030 | showed both responses | 12.26 ± 1.54 × 10^6 cells/animal | – | significantly suppressed | – | – | suppressed | 1.8 | 80 | 1.442 ± 0.055**
